# In patent US20100087457A1, “DOSAGES AND METHODS FOR THE TREATMENT OF CANCER” (Myriad Pharmaceuticals, Inc, priority 2007, published 2010):
# Where “and” joins values, the source holds several entries; their conditions need not be identical. Equal values may be shown once. Where a name gives a salt, the structure may show the parent alone.
# Legend:
# [1] = Phase I clinical trial: safety and tolerability in subjects with refractory solid tumors; type: in vivo, human
# Method: (§1) An open-label, dose-escalating, multiple-dose study to define the safety, tolerability and pharmacokinetics of weekly intravenous administration of (4-Methoxy-phenyl)-methyl-(2-methyl-quinazolin-4-yl)-amine hydrochloride was performed. A dosing schedule (each 4 week cycle) was performed for (4-Methoxy-phenyl)-methyl-(2-methyl-quinazolin-4-yl)-amine hydrochloride weekly for 3 weeks with no infusion on the fourth week of each cycle. Subjects with refractory solid tumors were enrolled in cohorts of 3. During Cycle 1, subjects were hospitalized during each infusion of (4-Methoxy-phenyl)-methyl-(2-methyl-quinazolin-4-yl)-amine hydrochloride and remained for observation and safety evaluation for approximately 24 hours following the end of the infusion. All subjects had continuous telemetry for 2 hours prior to infusion, for 1-2 hour infusion and for 3 hours after the end of the infusion. Any clinically significant electrocardiographic (ECG) wave form abnormality was recorded and prolongation of the monitoring period extended at the discretion of the principal investigator.
# Electrocardiograms were obtained prior to starting the infusion and within 30 minutes of the end of infusion for each infusion of the first cycle. Electrocardiograms on Day 1 were obtained in triplicate 5 minutes apart.
# Neurocognitive assessments were made by administration of the Mini-Mental State Examination (MMSE), the Hopkins Verbal Learning and timed Grooved Pegboard tests before administration of the intravenous infusion and approximately 24 hours of the infusion at each weekly administration of the first cycle.
# On days 1, 8, and 15 of each cycle, vital signs were obtained prior to the first dose, at 15, 30, and 60 minutes after the initiation of the infusion, and at 0.5, 1, 1.5, 2, and 4 hours after the end of the intravenous infusion. Vital signs at all time points beyond the start of the intravenous infusion included heart rate, blood pressure and respirations. Temperature was measured at the end of the infusion and 4 hours later.
# Individual subjects were allowed to continue on repeated weekly×3 administrations every 28 days with no dose increase provided there was no unacceptable toxicity or disease progression.
# Tumor response was evaluated by response evaluation criteria in solid tumors (RECIST) criteria. To prevent sever hypersensitivity reactions due to Cremophor® EL, subjects were premedicated with oral dexamethasone (20 mg) administered approximately 12 and 6 hours before the intravenous infusion with (4-Methoxy-phenyl)-methyl-(2-methyl-quinazolin-4-yl)-amine hydrochloride, diphenhydramine (50 mg) or its equivalent administered intravenously 30-60 minutes before (4-Methoxy-phenyl)-methyl-(2-methyl-quinazolin-4-yl)-amine hydrochloride, and cimetidine (300 mg) or ranitidine (50 mg) administered intravenously 30-60 minutes before (4-Methoxy-phenyl)-methyl-(2-methyl-quinazolin-4-yl)-amine hydrochloride.
# [2] = Phase I clinical trial: plasma concentrations after weekly intravenous infusion (pharmacokinetics); type: in vivo, human; conditions: LLOQ 1 ng/mL; for Plasma Concentrations 1 HR: 1 hr after infusion; for Plasma Concentrations 2 HR: 2 hr after infusion; for Plasma Concentrations 4 HR: 4 hr after infusion; for Plasma Concentrations 6 HR: 6 hr after infusion; for Plasma Concentrations 12 HR: 12 hr after infusion; for Plasma Concentrations 24 HR: 24 hr after infusion; for Plasma Concentrations EOI: end of infusion; for Plasma Concentrations PREDOSE: Day 15 (third weekly dose)
# Method: as §1
# Blood samples were collected prior to dosing, at the end of the infusion, and 1, 2, 4, 6, 12, and 24 hours after the infusion. This sampling schedule occurred on Days 1 and 15 with administration of the first and third doses. Samples were collected into tubes containing EDTA and stored on ice until centrifuged. The plasma was frozen at approximately −20° C. in labeled, plastic tubes, or vials, and tightly capped. The samples were shipped to Myriad Pharmaceuticals, Inc. for analysis of (4-Methoxy-phenyl)-methyl-(2-methyl-quinazolin-4-yl)-amine hydrochloride. Pharmacokinetic analysis was conducted using WinNonlin 4.0®.
# [3] = Day 1, 0.3 mg/m^2 i.v., infusion 1 hr, hydrochloride
# [4] = Day 1, 0.3 mg/m^2 i.v., infusion 1 hr
# [5] = Day 1, 2.1 mg/m^2 i.v., infusion 1 hr, hydrochloride
# [6] = Day 1, 2.7 mg/m^2 i.v., infusion 1 hr, hydrochloride
# [7] = Day 1, 3.3 mg/m^2 i.v., infusion 2 hr, hydrochloride
# [8] = Day 15, 0.3 mg/m^2 i.v., infusion 1 hr
# [9] = Day 15, 1.0 mg/m^2 i.v., infusion 1 hr, hydrochloride
# [10] = Day 15, 1.0 mg/m^2 i.v., infusion 1 hr
# [11] = Day 15, 2.1 mg/m^2 i.v., infusion 1 hr, hydrochloride
smiles,measurement,setting,value
COc1ccc(N(C)c2nc(C)nc3ccccc23)cc1 [(4-Methoxy-phenyl)-methyl-(2-methyl-quinazolin-4-yl)-amine hydrochloride],bradycardia,[1]; Phase 1 Trial,occasional episodes of bradycardia
same,dose limiting toxicity,[1]; Phase 1 Trial,"vascular in nature, manifested by an acute coronary syndrome"
same,intratumor bleeding,[1]; Phase 1 Trial,incidences of intratumor bleeding
same,systolic blood pressure,[1]; Phase 1 Trial,dose-related increase
same,"effects on cardiac conduction (PR, QRS or QTc)","[1]; Phase 1 Trial, ECG",no significant effects
same,cytotoxity peripherally,"[1]; Phase 1 Trial, at the administered doses",no evidence of cytotoxity peripherally
same,safety and tolerability,"[1]; Phase 1 Trial, weekly intravenous administration",safe and tolerable
same,dose ranges found to be safely tolerated,[1]; human patients,less than 3.3 mg/m^2
same,Plasma Concentrations 1 HR,[2]; [3],1.17 ng/mL and 1.25 ng/mL
same,Plasma Concentrations 2 HR,[2]; [4],BQL
same,Plasma Concentrations 4 HR,[2]; [4],BQL
same,Plasma Concentrations 6 HR,[2]; [4],BQL
same,Plasma Concentrations 12 HR,[2]; [4],BQL
same,Plasma Concentrations 24 HR,[2]; [4],BQL
same,Plasma Concentrations EOI,[2]; [3],1.77 ng/mL and 1.52 ng/mL and 2.43 ng/mL
same,Plasma Concentrations 24 HR,"[2]; Day 1, 1.5 mg/m^2 i.v., infusion 1 hr",BQL
same,Plasma Concentrations 1 HR,[2]; [5],5.53 ng/mL and 3.75 ng/mL
same,Plasma Concentrations 2 HR,[2]; [5],4.78 ng/mL and 3.94 ng/mL
same,Plasma Concentrations 4 HR,[2]; [5],2.69 ng/mL and 2.41 ng/mL
same,Plasma Concentrations 6 HR,[2]; [5],1.62 ng/mL and 1.18 ng/mL
same,Plasma Concentrations 24 HR,"[2]; Day 1, 2.1 mg/m^2 i.v., infusion 1 hr",BQL
same,Plasma Concentrations 1 HR,[2]; [6],4.69 ng/mL
same,Plasma Concentrations 2 HR,[2]; [6],4.03 ng/mL and 5.54 ng/mL
same,Plasma Concentrations 4 HR,[2]; [6],2.33 ng/mL and 3.91 ng/mL
same,Plasma Concentrations 6 HR,[2]; [6],1.68 ng/mL and 3.11 ng/mL
same,Plasma Concentrations EOI,[2]; [6],10.42 ng/mL and 11.10 ng/mL and 7.52 ng/mL
same,Plasma Concentrations 2 HR,[2]; [7],10.37 ng/mL and 8.81 ng/mL and 5.19 ng/mL
same,Plasma Concentrations EOI,[2]; [7],8.67 ng/mL and 11.97 ng/mL and 13.37 ng/mL and 16.77 ng/mL
same,Plasma Concentrations PREDOSE,"[2]; 0.3 mg/m^2 i.v., infusion 1 hr",BQL
same,Plasma Concentrations PREDOSE,"[2]; 0.6 mg/m^2 i.v., infusion 1 hr",BQL
same,Plasma Concentrations PREDOSE,"[2]; 1.0 mg/m^2 i.v., infusion 1 hr",BQL
same,Plasma Concentrations PREDOSE,"[2]; 1.5 mg/m^2 i.v., infusion 1 hr",BQL
same,Plasma Concentrations PREDOSE,"[2]; 2.1 mg/m^2 i.v., infusion 1 hr",BQL
same,Plasma Concentrations PREDOSE,"[2]; 2.7 mg/m^2 i.v., infusion 1 hr",BQL
same,Plasma Concentrations PREDOSE,"[2]; 3.3 mg/m^2 i.v., infusion 2 hr",BQL
same,Plasma Concentrations 2 HR,[2]; [8],BQL
same,Plasma Concentrations 4 HR,[2]; [8],BQL
same,Plasma Concentrations 6 HR,[2]; [8],BQL
same,Plasma Concentrations 12 HR,[2]; [8],BQL
same,Plasma Concentrations 24 HR,[2]; [8],BQL
same,Plasma Concentrations 1 HR,[2]; [9],2.51 ng/mL
same,Plasma Concentrations 2 HR,[2]; [9],2.15 ng/mL
same,Plasma Concentrations 6 HR,[2]; [10],BQL
same,Plasma Concentrations 12 HR,[2]; [10],BQL
same,Plasma Concentrations 24 HR,[2]; [10],BQL
same,Plasma Concentrations EOI,[2]; [9],8.27 ng/mL and 7.82 ng/mL
same,Plasma Concentrations 4 HR,"[2]; Day 15, 1.5 mg/m^2 i.v., infusion 1 hr, hydrochloride",1.60 ng/mL and 1.40 ng/mL and 1.30 ng/mL
same,Plasma Concentrations 1 HR,[2]; [11],6.21 ng/mL and 7.19 ng/mL
same,Plasma Concentrations 4 HR,[2]; [11],3.79 ng/mL
same,Plasma Concentrations 1 HR,"[2]; Day 15, 3.3 mg/m^2 i.v., infusion 1 hr, hydrochloride",9.00 ng/mL and 17.56 ng/mL and 15.17 ng/mL
